Test results reported in paper PMC4575030 (PLoS ONE, 2015).

How the values were obtained:
[1] = Terminal plasma and brain concentrations after behavioral testing; type: in vivo, rat
[2] = system: rat formalin model of pain; assay: Formalin test (formalin-induced flinching); type: in vivo; details: for Decrease in formalin flinching: phase 2 (10 to 40 min), percent of vehicle
Procedure: Formalin-induced flinching was measured using the Automated Nociception Analyzer (ANA) (University Anesthesia Research & Development Group, La Jolla, CA). Rats were habituated to the ANA testing chambers for at least 30 minutes prior to the formalin injection. At test time, each rat was removed from the testing chamber and gently wrapped in a towel. 50 μL of 2.5% formalin solution was injected into the dorsal surface of the left hind paw with a 30 gauge needle. A small metal band was then affixed to the plantar side of the injected paw with one drop of super glue. The animal was then unwrapped from the towel, placed back in the testing chamber, and flinching behavior was scored for 40 minutes by the ANA software. While minimized, non-painful paw movement from the natural activity of an alert animal could be erroneously binned by the automated recording system as a nociceptive behavior. These behaviors are not subtracted from the flinching total. […] Total flinching behavior was used as the endpoint of the assay.

naïve rats = assay: Open field activity (basic movement); type: in vivo, rat; details: formalin-naïve rats
Procedure: Basic movement was measured using the Photobeam Activity System Open Field (San Diego Instruments, San Diego, CA) equipped with 48 infrared photocell emitters and detectors. Photobeams used to measure vertical movement were positioned 14 cm above the test chamber floor. Each testing chamber was made of Plexiglas (41 x 41 x 36 cm) and was devoid of any bedding. At the beginning of the test session, each animal was placed in a separate testing chamber and the room lights were turned off. Basic movement was measured for 30 minutes.

CC(=O)Nc1cccc(Nc2ncnc(N3CCC(OCc4ccc(OC(F)(F)F)cc4)CC3)n2)c1C [Compound 52, N-(2-methyl-3-((4-(4-((4-(trifluoromethoxy)benzyl)oxy)-1-piperidinyl)-1,3,5-triazin-2-yl)amino)phenyl)acetamide]
Kp ([1]; brain and plasma, rat, ratio of concentrations measured following the formalin test): 0.3 | Effective [plasma] ([1]; mean terminal plasma concentration at the lowest effective dose in the rat formalin test): 1.93 µM | Decrease in formalin flinching ([2]; 3 mg/kg p.o.): 9% | Decrease in formalin flinching ([2]; 10 mg/kg p.o.): 22% | Decrease in formalin flinching ([2]; 30 mg/kg p.o.): 79% | Analgesic efficacy ([2]; rat formalin model, significant (p < 0.05) decrease in flinching at a dose without a reduction in open field movement that obviated the result): Yes | Reduction in formalin flinching, result in words ([2]; rat formalin test): statistically significant and plasma concentration-dependent reduction in formalin flinching | Behavioral analgesic efficacy in the formalin model, i.v. delivery ([2]; same formulation and i.v. route as electrophysiology, data not shown): equivalent to morphine | Decrease in basic movement (naïve rats; 3 mg/kg p.o.): 3% | Decrease in basic movement (naïve rats; 10 mg/kg p.o., negative value = increase): 11% | Decrease in basic movement (naïve rats; 30 mg/kg p.o.): 54%
